Experiment [1] deals with Low molecular weight phosphotyrosine protein phosphatase (Homo sapiens, UniProt P24666). The format is functional. Conditions: read-out: IC50_Mean.
The next experiment has as its system Streptococcus. In words: Group A Streptococcus viability loss, dose response, counter-screen for streptokinase expression inhibitor project, luminescence, BacTiterGlo (AID 1915).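 Also: potency for reduction of bacterial viability or growth.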 The experiment is classed as functional, organism-based. On the technique in general: The purpose of a counterscreen is to sort out artefacts and off-target activity.
Another experiment deals with T1, Streptokinase A (Streptococcus pyogenes serotype M1, UniProt P10520).
T1 sequence (P10520 whole entry): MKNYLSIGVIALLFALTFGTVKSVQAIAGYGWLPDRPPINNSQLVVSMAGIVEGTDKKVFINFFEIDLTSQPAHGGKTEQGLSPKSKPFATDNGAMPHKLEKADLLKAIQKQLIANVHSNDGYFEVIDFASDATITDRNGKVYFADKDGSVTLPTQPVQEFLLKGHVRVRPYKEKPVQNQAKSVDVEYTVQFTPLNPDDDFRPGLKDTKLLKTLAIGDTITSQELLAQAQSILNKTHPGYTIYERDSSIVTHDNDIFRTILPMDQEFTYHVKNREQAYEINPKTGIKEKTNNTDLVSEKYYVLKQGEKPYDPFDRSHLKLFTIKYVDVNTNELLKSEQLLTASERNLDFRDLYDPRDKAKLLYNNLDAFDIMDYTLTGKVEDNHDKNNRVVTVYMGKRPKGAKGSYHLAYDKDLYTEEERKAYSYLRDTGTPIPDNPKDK
In words: S. pyogenes streptokinase expression inhibitors, potency, dose response, plasminogen activation absorbance, OD405 (AID 1914).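 Also: secreted streptokinase activity via plasminogen activation per viability signal from cell pellet.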 The format is functional, Streptococcus pyogenes M1 GAS.

The subject of experiment [2] is Streptococcus sp. 'group A'. In words: growth inhibition of control SK(-) GAS strain, dose response, counter-screen for streptokinase expression inhibitor project, luminescence, kanamycin, BacTiterGlo, confirmation (AID 1900). The experiment is classed as functional, organism-based.
The target of experiment [3] is Nuclear receptor subfamily 5 group A member 2 (Homo sapiens, UniProt O00482). The experiment is classed as functional, cell-based.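 Also: HEK293T cells transfected with LRH-1 and a StAR promoter luciferase reporter; potency for inhibitors that lower LRH-1 driven reporter light.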
Chain of Nuclear receptor subfamily 5 group A member 2 (O00482 whole entry): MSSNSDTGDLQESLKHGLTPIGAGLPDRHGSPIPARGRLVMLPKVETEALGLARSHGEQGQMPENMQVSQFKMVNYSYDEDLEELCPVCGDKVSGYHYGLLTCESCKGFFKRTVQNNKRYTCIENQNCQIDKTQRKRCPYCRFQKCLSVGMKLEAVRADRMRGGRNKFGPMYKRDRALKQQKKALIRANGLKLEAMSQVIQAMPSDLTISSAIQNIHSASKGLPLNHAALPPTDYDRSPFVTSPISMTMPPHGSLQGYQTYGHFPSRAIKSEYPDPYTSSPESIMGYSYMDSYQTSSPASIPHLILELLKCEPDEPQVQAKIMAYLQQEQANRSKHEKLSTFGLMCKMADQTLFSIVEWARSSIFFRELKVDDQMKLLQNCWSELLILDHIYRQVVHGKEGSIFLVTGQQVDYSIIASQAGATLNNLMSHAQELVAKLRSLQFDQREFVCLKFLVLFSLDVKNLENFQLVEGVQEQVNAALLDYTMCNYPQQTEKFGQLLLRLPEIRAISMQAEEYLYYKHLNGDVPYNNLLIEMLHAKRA
Experiment [4] is described as follows: StAR promoter reporter inhibition counter-screen, dose response, counter-screen for LRH-1 inverse agonist project, cell-based, luminescence, luciferase reporter (AID 651969). The experiment is classed as functional.
For a further experiment, the target named is Steroidogenic factor 1 (Homo sapiens, UniProt Q13285). In words: Counterscreen for inverse agonists of the liver receptor homolog-1 (LRH-1; NR5A2): Luminescence-based cell-based high throughput dose response assay to identify inverse agonists of the Steroidogenic Factor 1 Nuclear Receptor (SF1; NR5A1). The format is functional.
Chain of Steroidogenic factor 1 (Q13285 whole entry): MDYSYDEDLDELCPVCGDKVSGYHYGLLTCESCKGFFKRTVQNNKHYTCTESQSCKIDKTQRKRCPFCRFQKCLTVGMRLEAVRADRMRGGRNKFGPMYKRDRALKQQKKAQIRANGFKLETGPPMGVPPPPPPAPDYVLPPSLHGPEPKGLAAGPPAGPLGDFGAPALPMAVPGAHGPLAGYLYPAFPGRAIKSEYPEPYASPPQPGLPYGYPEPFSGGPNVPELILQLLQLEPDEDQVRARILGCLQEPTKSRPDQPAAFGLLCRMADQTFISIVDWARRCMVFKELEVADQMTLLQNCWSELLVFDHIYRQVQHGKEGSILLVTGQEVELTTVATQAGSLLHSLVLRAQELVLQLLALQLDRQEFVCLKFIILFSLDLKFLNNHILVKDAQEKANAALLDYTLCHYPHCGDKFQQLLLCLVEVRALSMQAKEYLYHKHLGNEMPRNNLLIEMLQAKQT
Experiment [5] deals with T2, Tyrosine-protein phosphatase non-receptor type 22 (Homo sapiens, UniProt Q9Y2R2).
T2 sequence (Q9Y2R2 whole entry): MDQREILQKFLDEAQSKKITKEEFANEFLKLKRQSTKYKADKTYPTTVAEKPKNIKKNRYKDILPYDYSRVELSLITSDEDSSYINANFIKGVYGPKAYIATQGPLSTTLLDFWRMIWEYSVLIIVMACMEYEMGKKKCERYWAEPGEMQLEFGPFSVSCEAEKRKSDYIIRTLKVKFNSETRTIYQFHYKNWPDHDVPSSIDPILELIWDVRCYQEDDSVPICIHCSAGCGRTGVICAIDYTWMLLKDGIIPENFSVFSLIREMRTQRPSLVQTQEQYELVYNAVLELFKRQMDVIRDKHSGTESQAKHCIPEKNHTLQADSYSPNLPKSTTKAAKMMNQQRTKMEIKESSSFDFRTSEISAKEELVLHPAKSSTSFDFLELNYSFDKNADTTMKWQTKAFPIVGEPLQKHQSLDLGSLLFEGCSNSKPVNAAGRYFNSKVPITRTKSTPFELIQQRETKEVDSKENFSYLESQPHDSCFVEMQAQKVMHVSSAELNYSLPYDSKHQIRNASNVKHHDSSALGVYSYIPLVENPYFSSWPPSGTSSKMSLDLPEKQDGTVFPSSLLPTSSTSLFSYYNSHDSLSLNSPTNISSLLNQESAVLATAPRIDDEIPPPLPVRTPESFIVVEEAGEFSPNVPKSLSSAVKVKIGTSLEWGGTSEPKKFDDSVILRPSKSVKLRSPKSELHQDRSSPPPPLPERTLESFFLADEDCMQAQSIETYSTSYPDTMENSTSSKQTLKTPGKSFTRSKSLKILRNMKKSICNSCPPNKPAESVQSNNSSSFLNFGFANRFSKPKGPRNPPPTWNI
In words: PTPN22 phosphatase inhibition, dose response, selectivity assay for STEP inhibitor project, biochemical (AID 624241). The format is functional.

Experiment [6] has as its target Dual specificity protein phosphatase 3 (Homo sapiens, UniProt P51452). In words: VHR phosphatase inhibition, dose response, selectivity assay for STEP inhibitor project, biochemical (AID 602374). The format is functional. Conditions: read-out: IC50_Mean.
Experiment [7] addresses Tyrosine-protein phosphatase non-receptor type 5 (Homo sapiens, UniProt P54829). In words: STEP phosphatase inhibitors, confirmation, biochemical, fluorescence intensity, uHTS hits (AID 602372). Conditions: read-out: IC50_Mean. The experiment is classed as functional.
Experiment [8] addresses Tyrosine-protein phosphatase non-receptor type 11 (Homo sapiens, UniProt Q06124). In words: SHP2 phosphatase inhibition, dose response, selectivity assay for STEP inhibitor project, biochemical (AID 602367). The format is functional. The settings on record: read-out: IC50_Mean.
A short description of experiment [9]: inhibitors of SNCA 5'UTR-driven reporter translation, confirmation, H4 neuroglioma cells, luminescence (AID 1988). The experiment is classed as functional, cell-based.
Experiment [10] in a line: cells. The experiment is classed as functional, cell-based.
Experiment [11] can be described thus: HepG2 cell cytotoxicity, dose response, cytotoxicity control for Shn3 inhibitor project, CellTiter-Glo, cherry-picked (AID 624134). The format is functional, cell-based. (In general: In ATP-based viability assays light output follows the ATP content of the culture.)
The test system of the next experiment is INS1. In words: beta cell apoptosis inhibitors, cytokine rescue, dose response, luminescence, retest (AID 449756).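 Also: cell death triggered by IL-1 beta plus TNF-alpha plus IFN-gamma mixture; protective hits raise ATP signal compared with cytokine alone wells.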 The experiment is classed as functional, cell-based. The settings on record: Rattus norvegicus.
The nature of experiment [12]: Luminescence Cell-Based Dose Response HTS to Identify Inhibitors of 5'UTR Stem-Loop Driven Prion Protein mRNA Translation in H4 Neuroglioblastoma Cells. [Related pubchem assays: 1827 (Project Summary), 1813 (Primary HTS)]. The format is functional.
Experiment [13] concerns the target Photoreceptor-specific nuclear receptor (Homo sapiens, UniProt Q9Y5X4). The format is functional, cell-based.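 Also: CHO-S cells with Gal4-NCOR and VP16-NR2E3 two-hybrid luciferase reporter.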
Experiment [14] in a line: cells. The format is functional, cell-based. The source holds these as a separate data set.
Experiment [15] can be described thus: Shn3 3'UTR reporter inhibitors, dose response, cell-based, Clone20 osteoblasts, firefly luciferase, cherry-picked (AID 624132).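 Also: firefly luciferase luminescence from reporter carrying the Shn3 3'UTR in osteoblasts.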 The format is functional.
Experiment [16] can be described thus: inhibitors of intracellular T. cruzi replication, confirmation, NIH3T3 host cells, beta-gal luminescence (AID 2044).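 Also: intracellular parasites grown in NIH/3T3 mouse fibroblasts as host cells; luminescent beta-galactosidase reporter signal from transgenic T. cruzi replicating inside host cells; inhibitors lower the luminescence signal.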 The experiment is classed as functional, cell-based.
A short description of experiment [17]: inhibitors of firefly luciferase expression or activity, dose response, H4 neuroglioma cells, luminescence (AID 1990). The format is functional, cell-based.
The nature of experiment [18]: control 3'UTR Renilla luciferase suppression, dose response, counter-screen for Shn3 inhibitor project, cell-based, Clone20-Shn3RL, cherry-picked (AID 624133). The experiment is classed as functional.
The nature of experiment [19]: cytotoxicity in NIH3T3 fibroblasts, dose response, cytotoxicity control for HSP40 inhibitor project, cell-based, CellTiter-Glo luminescence, cherry-pick, set 2 (AID 624265). The format is functional.
Experiment [20] in a line: cytotoxicity toward NIH3T3 fibroblasts, dose response, counter-screen, cell-based, ATP luminescence, mouse fibroblasts (AID 2010).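 Also: cells exposed to compound for about 90 hours before reading.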 The format is functional.
Experiment [21] concerns the target Arf-GAP with SH3 domain, ANK repeat and PH domain-containing protein 1 (Homo sapiens, UniProt Q9ULH1). The format is functional.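 Also: biochemical fluorescence polarization dose–response screen measuring inhibition of ASAP1; ASAP1 GAP domain stimulating GTP hydrolysis by truncated human ARF1.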
In experiment [22] the target is T3, DNA repair protein RAD52 homolog (Homo sapiens, UniProt P43351).
T3 sequence (P43351 whole entry): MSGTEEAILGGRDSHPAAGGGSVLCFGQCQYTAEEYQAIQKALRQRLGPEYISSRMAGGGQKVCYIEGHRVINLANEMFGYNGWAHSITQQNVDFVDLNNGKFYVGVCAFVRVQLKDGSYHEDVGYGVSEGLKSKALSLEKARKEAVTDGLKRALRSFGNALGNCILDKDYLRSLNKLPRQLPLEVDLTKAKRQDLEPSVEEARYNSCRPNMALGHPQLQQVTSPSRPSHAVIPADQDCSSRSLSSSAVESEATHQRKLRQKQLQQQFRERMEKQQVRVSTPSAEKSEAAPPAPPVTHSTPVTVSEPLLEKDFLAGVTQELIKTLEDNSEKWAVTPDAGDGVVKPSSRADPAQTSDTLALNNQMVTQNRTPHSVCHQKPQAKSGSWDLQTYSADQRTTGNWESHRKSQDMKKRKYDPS
The format is functional, biochemical.

The nature of experiment [23]: growth suppression of beta-catenin-knockout colon cells, dose response, cell-based, HCT116, human colon tumor (AID 1045).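 Also: HCT116 colon tumor cells with beta catenin knocked out; cells exposed to compound for 60 hours.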 The experiment is classed as functional.
Experiment [24] is described as follows: growth suppression of PTEN-null colon cells, dose response, cell-based, HCT116 PTEN knockout (AID 1047).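 Also: HCT116 colon tumor cells with PTEN knocked out; cells exposed to compound for 60 hours before readout; potency for loss of cell viability measured by luminescence.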 The format is functional.
The target of another experiment is Nonstructural protein 1 (Influenza A virus, UniProt Q194T2). The experiment is classed as functional, Influenza A virus (A/California/07/2009(H1N1)).
Chain of Nonstructural protein 1 (Q194T2 whole entry): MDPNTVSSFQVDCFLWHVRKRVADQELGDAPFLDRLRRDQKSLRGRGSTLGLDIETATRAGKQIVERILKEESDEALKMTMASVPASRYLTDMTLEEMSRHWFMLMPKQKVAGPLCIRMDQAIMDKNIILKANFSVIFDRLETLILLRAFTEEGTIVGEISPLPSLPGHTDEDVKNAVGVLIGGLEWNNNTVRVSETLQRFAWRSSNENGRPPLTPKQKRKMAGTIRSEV
For experiment [25], the target named is T4, Methionyl-tRNA synthetase, putative (Trypanosoma brucei brucei, UniProt Q38C91). The format is functional, Trypanosoma brucei brucei strain 927/4 GUTat10.1.
T4 sequence (Q38C91 whole entry): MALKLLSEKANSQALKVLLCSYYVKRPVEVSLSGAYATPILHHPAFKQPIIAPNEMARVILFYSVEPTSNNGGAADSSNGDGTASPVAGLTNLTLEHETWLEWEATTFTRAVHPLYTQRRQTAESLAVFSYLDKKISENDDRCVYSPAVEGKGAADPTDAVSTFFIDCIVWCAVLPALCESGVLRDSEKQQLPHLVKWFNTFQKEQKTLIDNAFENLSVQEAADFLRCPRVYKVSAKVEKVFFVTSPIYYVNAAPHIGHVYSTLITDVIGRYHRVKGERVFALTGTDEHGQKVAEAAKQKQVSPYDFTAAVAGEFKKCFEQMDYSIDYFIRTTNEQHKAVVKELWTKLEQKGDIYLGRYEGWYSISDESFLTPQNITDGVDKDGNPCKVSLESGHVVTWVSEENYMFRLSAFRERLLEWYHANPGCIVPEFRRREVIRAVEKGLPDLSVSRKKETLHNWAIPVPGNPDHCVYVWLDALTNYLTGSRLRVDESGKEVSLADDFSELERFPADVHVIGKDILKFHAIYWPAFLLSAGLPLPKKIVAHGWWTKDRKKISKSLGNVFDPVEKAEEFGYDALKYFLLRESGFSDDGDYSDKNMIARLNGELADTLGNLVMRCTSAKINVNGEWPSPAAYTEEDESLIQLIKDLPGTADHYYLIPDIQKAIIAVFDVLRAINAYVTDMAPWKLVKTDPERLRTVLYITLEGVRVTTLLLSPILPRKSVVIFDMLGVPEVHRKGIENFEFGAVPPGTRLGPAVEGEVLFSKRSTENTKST
Experiment [26] has as its target T4, Methionyl-tRNA synthetase, putative. The format is functional, Trypanosoma brucei brucei strain 927/4 GUTat10.1. The source holds these as a separate data set.
Experiment [27] can be described thus: Counterscreen for inhibitors of Trypanosoma brucei methionyl tRNA synthetase (MetRS): Luminescence-based cell-based high throughput dose response assay to identify compounds that are cytotoxic to Jurkat human T lymphocyte cells. The experiment is classed as functional.
Experiment [28] deals with T5, Aryl hydrocarbon receptor (Homo sapiens, UniProt P35869).
T5 sequence (P35869 whole entry): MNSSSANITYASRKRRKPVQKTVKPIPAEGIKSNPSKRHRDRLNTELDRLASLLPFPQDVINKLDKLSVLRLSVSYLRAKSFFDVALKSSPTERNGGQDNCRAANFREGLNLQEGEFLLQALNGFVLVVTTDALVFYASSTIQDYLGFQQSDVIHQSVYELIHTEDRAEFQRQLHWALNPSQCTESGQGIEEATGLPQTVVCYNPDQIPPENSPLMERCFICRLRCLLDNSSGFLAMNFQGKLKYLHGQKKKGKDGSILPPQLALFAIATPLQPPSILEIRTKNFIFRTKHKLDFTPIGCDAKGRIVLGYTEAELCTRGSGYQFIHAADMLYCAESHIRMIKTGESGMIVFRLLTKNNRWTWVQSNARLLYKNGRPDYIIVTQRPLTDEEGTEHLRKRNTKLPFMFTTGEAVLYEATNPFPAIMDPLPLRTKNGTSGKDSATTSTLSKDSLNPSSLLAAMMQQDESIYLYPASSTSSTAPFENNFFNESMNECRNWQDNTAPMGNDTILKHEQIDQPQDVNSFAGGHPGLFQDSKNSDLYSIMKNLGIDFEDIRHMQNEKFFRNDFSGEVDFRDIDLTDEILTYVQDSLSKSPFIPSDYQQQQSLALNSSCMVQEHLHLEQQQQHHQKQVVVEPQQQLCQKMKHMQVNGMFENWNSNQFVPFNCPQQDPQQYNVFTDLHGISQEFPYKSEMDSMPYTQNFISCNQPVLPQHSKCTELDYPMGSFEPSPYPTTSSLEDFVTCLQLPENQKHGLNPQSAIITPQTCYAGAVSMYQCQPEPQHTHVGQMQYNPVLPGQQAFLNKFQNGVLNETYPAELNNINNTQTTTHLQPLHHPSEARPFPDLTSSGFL
Conditions: Potency.

By EC50 is commonly meant the concentration giving half of the maximal effect. The term AC50 denotes the midpoint of the concentration-response curve, whichever way the signal moves.

Active and inactive are the calls of the source. Bounds are passed on as bounds.

Chain of Tyrosine-protein phosphatase non-receptor type 5 (P54829 whole entry): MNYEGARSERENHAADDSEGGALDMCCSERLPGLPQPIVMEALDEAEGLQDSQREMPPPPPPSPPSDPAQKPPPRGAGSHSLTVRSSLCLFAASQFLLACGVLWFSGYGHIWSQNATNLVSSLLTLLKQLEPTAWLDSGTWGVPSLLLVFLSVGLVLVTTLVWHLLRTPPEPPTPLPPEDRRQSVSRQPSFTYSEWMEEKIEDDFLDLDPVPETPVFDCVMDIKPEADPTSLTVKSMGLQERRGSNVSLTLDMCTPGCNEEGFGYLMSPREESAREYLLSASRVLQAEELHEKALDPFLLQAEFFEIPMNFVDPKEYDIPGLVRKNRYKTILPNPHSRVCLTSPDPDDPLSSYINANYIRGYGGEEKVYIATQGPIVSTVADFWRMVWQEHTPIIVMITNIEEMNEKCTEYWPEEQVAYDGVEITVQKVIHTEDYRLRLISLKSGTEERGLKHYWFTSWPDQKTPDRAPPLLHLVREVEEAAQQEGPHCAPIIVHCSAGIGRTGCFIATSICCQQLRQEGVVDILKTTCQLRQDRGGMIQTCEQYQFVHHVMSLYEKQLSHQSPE
Chain of Photoreceptor-specific nuclear receptor (Q9Y5X4 whole entry, the tested form may be a part): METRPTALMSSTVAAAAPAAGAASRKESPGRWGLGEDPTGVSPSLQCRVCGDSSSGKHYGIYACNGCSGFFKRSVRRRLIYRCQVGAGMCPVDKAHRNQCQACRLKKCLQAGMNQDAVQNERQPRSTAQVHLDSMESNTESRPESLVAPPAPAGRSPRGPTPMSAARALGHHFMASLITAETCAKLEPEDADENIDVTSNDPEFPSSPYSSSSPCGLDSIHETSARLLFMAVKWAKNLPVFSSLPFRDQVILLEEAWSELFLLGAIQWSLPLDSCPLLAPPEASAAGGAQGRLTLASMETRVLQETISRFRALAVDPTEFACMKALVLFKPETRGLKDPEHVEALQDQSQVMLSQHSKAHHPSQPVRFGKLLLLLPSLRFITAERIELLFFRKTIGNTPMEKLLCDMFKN
Chain of Low molecular weight phosphotyrosine protein phosphatase (P24666 whole entry): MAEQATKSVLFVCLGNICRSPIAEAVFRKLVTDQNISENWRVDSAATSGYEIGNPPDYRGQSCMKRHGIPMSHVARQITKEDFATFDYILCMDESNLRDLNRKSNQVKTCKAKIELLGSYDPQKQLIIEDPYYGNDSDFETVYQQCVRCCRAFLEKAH
Chain of Arf-GAP with SH3 domain, ANK repeat and PH domain-containing protein 1 (Q9ULH1 whole entry, the tested form may be a part): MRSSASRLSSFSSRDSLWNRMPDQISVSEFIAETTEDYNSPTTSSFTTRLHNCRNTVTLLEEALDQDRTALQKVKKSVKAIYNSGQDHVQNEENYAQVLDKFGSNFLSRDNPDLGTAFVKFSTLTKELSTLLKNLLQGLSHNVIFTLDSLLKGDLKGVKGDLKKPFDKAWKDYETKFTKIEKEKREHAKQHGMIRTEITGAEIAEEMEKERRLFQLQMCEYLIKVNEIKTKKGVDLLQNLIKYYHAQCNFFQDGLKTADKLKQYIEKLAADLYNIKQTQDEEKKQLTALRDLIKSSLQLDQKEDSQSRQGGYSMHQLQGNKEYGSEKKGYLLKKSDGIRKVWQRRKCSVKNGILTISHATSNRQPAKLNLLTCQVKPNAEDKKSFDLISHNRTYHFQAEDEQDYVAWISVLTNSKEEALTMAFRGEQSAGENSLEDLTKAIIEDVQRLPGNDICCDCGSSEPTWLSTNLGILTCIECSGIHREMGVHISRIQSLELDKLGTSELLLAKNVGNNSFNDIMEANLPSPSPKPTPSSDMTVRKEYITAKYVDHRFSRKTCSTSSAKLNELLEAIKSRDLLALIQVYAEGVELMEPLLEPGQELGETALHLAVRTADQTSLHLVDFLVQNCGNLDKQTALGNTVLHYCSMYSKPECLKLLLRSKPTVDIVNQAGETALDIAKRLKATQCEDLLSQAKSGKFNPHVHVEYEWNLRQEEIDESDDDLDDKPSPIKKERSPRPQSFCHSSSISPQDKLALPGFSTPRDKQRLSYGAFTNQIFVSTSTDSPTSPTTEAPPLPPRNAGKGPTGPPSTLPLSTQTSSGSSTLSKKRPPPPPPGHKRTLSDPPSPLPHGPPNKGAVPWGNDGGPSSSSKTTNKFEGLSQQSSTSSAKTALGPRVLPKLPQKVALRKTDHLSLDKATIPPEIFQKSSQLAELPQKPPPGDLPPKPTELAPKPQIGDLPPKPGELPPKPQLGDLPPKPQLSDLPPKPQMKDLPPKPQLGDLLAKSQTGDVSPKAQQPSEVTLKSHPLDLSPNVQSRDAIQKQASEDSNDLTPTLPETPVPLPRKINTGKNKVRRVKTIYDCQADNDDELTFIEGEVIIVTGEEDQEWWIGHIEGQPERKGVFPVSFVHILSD
Chain of Tyrosine-protein phosphatase non-receptor type 11 (Q06124 whole entry): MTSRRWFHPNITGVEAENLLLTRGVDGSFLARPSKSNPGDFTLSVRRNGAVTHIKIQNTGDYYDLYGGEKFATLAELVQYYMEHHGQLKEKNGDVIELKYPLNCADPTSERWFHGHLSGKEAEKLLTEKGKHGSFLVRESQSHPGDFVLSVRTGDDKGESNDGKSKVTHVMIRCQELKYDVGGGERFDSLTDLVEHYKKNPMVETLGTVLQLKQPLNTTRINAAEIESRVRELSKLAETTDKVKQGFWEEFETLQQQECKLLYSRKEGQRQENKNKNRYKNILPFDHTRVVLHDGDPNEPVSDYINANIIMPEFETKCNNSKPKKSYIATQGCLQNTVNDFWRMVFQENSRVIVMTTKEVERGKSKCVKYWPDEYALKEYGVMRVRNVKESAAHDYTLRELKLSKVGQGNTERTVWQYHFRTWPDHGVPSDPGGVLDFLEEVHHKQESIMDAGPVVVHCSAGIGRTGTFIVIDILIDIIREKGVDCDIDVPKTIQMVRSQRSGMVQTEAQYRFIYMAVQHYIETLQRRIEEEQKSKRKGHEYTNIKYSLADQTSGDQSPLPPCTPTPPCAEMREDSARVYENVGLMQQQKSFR

For `CCn1cc(C(=O)O)c(=O)c2cc(F)c(N3CCN(C(=S)NC(=O)c4cc(OC)cc(OC)c4)CC3)cc21`, the IC50 in experiment [1] is 1.47 µM (active). Also, the EC50 in the experiment with Streptococcus was 30.2 µM (active); on Streptokinase A it was > 150 µM (not active); in experiment [2], 2.89 µM (active).

Turning to `COc1cc([N+](=O)[O-])ccc1NC(=O)Cn1ccsc1=N`, the IC50 in experiment [3] is 35.9 µM (inactive); in experiment [4], 35.9 µM (inactive); on Steroidogenic factor 1, 1.95 µM (active).

As to `N#CNc1nc(O)cc(=O)[nH]1`, the IC50 in experiment [5] is 11.5 µM (active); in [6], 1.24 µM (active); in [7] it was 7.69 µM (active); in [8] it was 2.2 µM (active).

With `COc1cnc(-c2ccccn2)nc1N(C)c1ccccc1`, the EC50 in experiment [9] is > 120 µM (not active); in “cells [10]” it was 8.25 µM (active); in experiment [12] it was 7.24 µM (active); in the experiment “cells [14]” it was > 350 µM (not active); in the experiment with Streptococcus, 11 µM (active); in [16], 1.89 µM (active). Also, the EC50 in [17] was 8.68 µM (active); in [20], 5.78 µM (active); in experiment [2], 4.74 µM (active). Besides, the AC50 in experiment [11] was 4.02 µM (active); with INS1, 4.34 µM (active); in experiment [15] it was 1.83 µM (active); in experiment [18], 0.92 µM (active). The IC50 in experiment [13] was 4.58 µM (active). The molecule also displayed an AbsAC35_uM in [19] of 62.35 µM.

Turning to `CCC(/C=C1\Sc2ccc(OC)cc2N1CCO)=C\c1sc2ccc(OC)cc2[n+]1CCO`, the results for the IC50 (in experiment [21]; at Nonstructural protein 1) were 165 µM (inactive) and 5.11 µM (active), respectively. Also, the AC50 in experiment [22] is 1.77 µM (active). In addition, the figures for the EC50 in [23] and in experiment [24] were 5.82 µM (active) and 5.7 µM (active), respectively.

As for `O=C(CCCOc1ccc(Cl)cc1Cl)N/N=C/c1ccco1`, the IC50 in experiment [25] is 12 µM (inactive); in [26], 12.7 µM (inactive); in experiment [27] it was 83.3 µM (inactive).

On to `CC1(C)C(C=C(Cl)Cl)C1C(=O)OCc1cccc(Oc2ccccc2)c1` (stereo not given) [PERMETHRIN], for which the AC50 in experiment [28] was 44.7 µM (inconclusive).
